Where two headings read alike, the source gives them in different places.
Assays:
C. albicans = test: Antifungal activity, inhibition zone approach; type: cell-based, Candida albicans; settings: for C. albicans Diameter of inhibition zone (mm): Fungi; for C. albicans % Activity index: ketoconazole = 100; for antimicrobial activity with C. albicans, in words: authors' grading of Table 2 values, key not given
HepG-2 = test: Anti-proliferative activity, SRB colorimetric assay; type: cell-based; settings: for IC50: HepG-2 cancer cell line, SRB assay, read-out: Cell lines (IC50 μM) HepG-2; for anti-proliferative activity against HepG-2, in words: authors' grading of Table 1 values, key not given
S. aureus = test: Antibacterial activity, inhibition zone approach; type: cell-based, Staphylococcus aureus; settings: for S. aureus Diameter of inhibition zone (mm): Gram-positive bacteria; for S. aureus % Activity index: gentamicin = 100; for antimicrobial activity with S. aureus, in words: authors' grading of Table 2 values, key not given
B. subtilis = test: Antibacterial activity, inhibition zone approach; type: cell-based, Bacillus subtilis; settings: for B. subtilis Diameter of inhibition zone (mm): Gram-positive bacteria; for B. subtilis % Activity index: gentamicin = 100; for antimicrobial activity with B. subtilis, in words: authors' grading of Table 2 values, key not given
A. flavus = test: Antifungal activity, inhibition zone approach; type: cell-based, Aspergillus flavus; settings: for A. flavus Diameter of inhibition zone (mm): Fungi; for A. flavus % Activity index: ketoconazole = 100; for antimicrobial activity with A. flavus, in words: authors' grading of Table 2 values, key not given
MCF-7 = test: Anti-proliferative activity, SRB colorimetric assay; type: cell-based; settings: for IC50: Homo sapiens, MCF7, MCF-7 cancer cell line, SRB assay, read-out: Cell lines (IC50 μM) MCF-7; for anti-proliferative activity against MCF-7, in words: authors' grading of Table 1 values, key not given
P. aeuroginosa = test: Antibacterial activity, inhibition zone approach; type: cell-based, Pseudomonas aeuroginosa; settings: for P. aeuroginosa Diameter of inhibition zone (mm): Gram-negative bacteria; for P. aeuroginosa % Activity index: gentamicin = 100; for antimicrobial activity with P. aeuroginosa, in words: authors' grading of Table 2 values, key not given
E. coli = test: Antibacterial activity, inhibition zone approach; type: cell-based, Escherichia coli; settings: for E. coli Diameter of inhibition zone (mm): Gram-negative bacteria; for E. coli % Activity index: gentamicin = 100; for antimicrobial activity with E. coli, in words: authors' grading of Table 2 values, key not given

| Compound | C. albicans Diameter of inhibition zone (mm) (C. albicans) | C. albicans % Activity index (C. albicans) | IC50 (HepG-2; Homo sapiens, HepG2) | S. aureus Diameter of inhibition zone (mm) (S. aureus) | S. aureus % Activity index (S. aureus) | B. subtilis Diameter of inhibition zone (mm) (B. subtilis) | B. subtilis % Activity index (B. subtilis) | A. flavus Diameter of inhibition zone (mm) (A. flavus) | A. flavus % Activity index (A. flavus) | IC50 (MCF-7) | melting point | P. aeuroginosa Diameter of inhibition zone (mm) (P. aeuroginosa) | P. aeuroginosa % Activity index (P. aeuroginosa) | E. coli Diameter of inhibition zone (mm) (E. coli) | antimicrobial activity with C. albicans, in words (C. albicans) | antimicrobial activity with S. aureus, in words (S. aureus) | antimicrobial activity with B. subtilis, in words (B. subtilis) | antimicrobial activity with E. coli, in words (E. coli) | antimicrobial activity with A. flavus, in words (A. flavus) | antimicrobial activity with P. aeuroginosa, in words (P. aeuroginosa) | also measured |
| --- | --- | --- | --- | --- | --- | --- | --- | --- | --- | --- | --- | --- | --- | --- | --- | --- | --- | --- | --- | --- | --- |
| CC(=O)N1N=C(c2ccc(Cl)c(Cl)c2)CC1c1cccs1 (centres unmarked) [8b, 1-(3-(3,4-dichlorophenyl)-5-(thiophen-2-yl)-4,5-dihydro-1H-pyrazol-1-yl)ethan-1-one] | 9 mm | 32.1% | 74.3 ± 3.5 µM | 3 mm | 16.7% | 7 mm | 31.8% | 5 mm | 19.2% | 72.6 ± 3.9 µM | 160 °C | 4 mm | 21.0% |  |  |  |  |  |  |  |  |
| CCOC(=O)c1c(-c2cccs2)cc(-c2ccc(O)cc2)[nH]c1=O [4a, Ethyl 6-(4-hydroxyphenyl)-2-oxo-4-(thiophen-2-yl)-1,2-dihydropyridine-3-carboxylate] | 13 mm | 46.4% | 44.5 ± 2.6 µM | 6 mm | 33.3% | 10 mm | 45.4% | 11 mm | 42.3% | 41.2 ± 2.4 µM | 125 °C | 8 mm | 42.1% | 5 mm |  |  |  |  |  |  | anti-proliferative activity against HepG-2, in words (HepG-2): moderate; E. coli % Activity index (E. coli): 23.8%; anti-proliferative activity against MCF-7, in words (MCF-7): moderate |
| N#Cc1c(-c2cccs2)cc(-c2ccc(Cl)c(Cl)c2)nc1N [2b, 2-Amino-6-(3,4-dichlorophenyl)-4-(thiophen-2-yl)nicotinonitrile] | 17 mm |  | 59.5 ± 3.1 µM | 9 mm |  | 14 mm |  | 10 mm |  | 55.5 ± 3.2 µM |  | 11 mm |  | 8 mm | strong | moderate | strong | moderate | moderate | strong |  |
| O=C(CCl)SC(=S)N1N=C(c2ccc(O)cc2)CC1c1cccs1 (centres unmarked) [20a, 2-Chloroacetic-3-(4-hydroxyphenyl)-5-(thiophen-2-yl)-4,5-dihydro-1H-pyrazole-1-carbothioic thioanhydride] | 9 mm | 32.1% | 67.4 ± 3.5 µM | 3 mm | 16.7% | 6 mm | 27.3% | 7 mm | 26.9% | 56.2 ± 3.3 µM | 265 °C | 4 mm | 21.0% |  | weak | weak | weak | weak | weak | weak | anti-proliferative activity against HepG-2, in words (HepG-2): weak; anti-proliferative activity against MCF-7, in words (MCF-7): weak |
| CNC(C)C1CCC(N)C(OC2C(N)CC(N)C(OC3OCC(C)(O)C(NC)C3O)C2O)O1 (centres unmarked) [Gentamicin, reference compound] |  |  |  | 18 mm | 100% | 22 mm | 100% |  |  |  |  | 19 mm | 100% | 21 mm |  |  |  |  |  |  | E. coli % Activity index (E. coli): 100% |
| O=C(O)CSC(=S)N1N=C(c2ccc(O)cc2)CC1c1cccs1 (centres unmarked) [19a, 2-((3-(4-Hydroxyphenyl)-5-(thiophen-2-yl)-4,5-dihydro-1H-pyrazole-1-carbonothioyl)thio)acetic acid] | 16 mm | 57.1% | 28.2 ± 1.9 µM | 10 mm | 55.5% | 14 mm | 63.6% | 13 mm | 50.0% | 14.7 ± 1.2 µM | 223 to 225 °C | 12 mm | 63.1% | 9 mm | moderate | moderate | moderate | moderate | moderate | moderate | anti-proliferative activity against HepG-2, in words (HepG-2): moderate; E. coli % Activity index (E. coli): 42.8%; anti-proliferative activity against MCF-7, in words (MCF-7): strong |
| Nc1nc(-c2ccc(O)cc2)cc(-c2cccs2)n1 [11a, 4-(2-amino-6-(thiophen-2-yl)pyrimidin-4-yl)phenol] | 11 mm |  | 52.9 ± 2.9 µM | 7 mm |  | 10 mm |  | 7 mm |  | 61.1 ± 3.4 µM |  | 11 mm |  | 6 mm | moderate | moderate | moderate | very strong | weak | moderate |  |
| Clc1ccc(C2=NN(c3ccccc3)C(c3cccs3)C2)cc1Cl (centres unmarked) [9b, 3-(3,4-dichlorophenyl)-1-phenyl-5-(thiophen-2-yl)-4,5-dihydro-1H-pyrazole] | 8 mm | 28.6% | 48.1 ± 2.7 µM |  |  | 6 mm | 27.3% | 3 mm | 11.5% | 67.3 ± 3.7 µM | 130 °C |  |  |  |  |  |  |  |  |  |  |
| CCOC(=O)CSC(=S)N1N=C(c2ccc(O)cc2)CC1c1cccs1 (centres unmarked) [17a, Ethyl 2-((3-(4-hydroxyphenyl)-5-(thiophen-2-yl)-4,5-dihydro-1H-pyrazole-1-carbonothioyl)thio)acetate] | 10 mm | 35.7% | 62.4 ± 3.3 µM | 6 mm | 33.3% | 11 mm | 50.0% | 8 mm | 30.8% | 36.9 ± 2.2 µM | 200 °C | 9 mm | 47.4% | 7 mm | weak | weak | weak | weak | weak | weak | anti-proliferative activity against HepG-2, in words (HepG-2): weak; E. coli % Activity index (E. coli): 33.3%; anti-proliferative activity against MCF-7, in words (MCF-7): moderate |
| COc1cccc2c1C(=O)c1c(O)c3c(c(O)c1C2=O)C[C@@](O)(C(=O)CO)C[C@@H]3O[C@H]1C[C@H](N)[C@H](O)[C@H](C)O1 [DOX, reference compound] |  |  |  |  |  |  |  |  |  |  |  |  |  |  |  |  |  |  |  |  | IC50 (HepG-2): 4.5 ± 0.2 µM |
| O=C(/C=C/c1cccs1)c1ccc(O)cc1 [1a, (E)-1-(4-hydroxyphenyl)-3-(thiophen-2-yl)prop-2-en-1-one] | 3 mm | 10.7% | 87.6 ± 4.2 µM |  |  |  |  |  |  | 82.5 ± 4.2 µM |  |  |  |  |  |  |  |  |  |  |  |
| Oc1ccc(-c2cc(-c3cccs3)n(-c3nc4nc5ccccc5nc4s3)n2)cc1 [12a, 4-(1-(thiazolo[4,5-b]quinoxalin-2-yl)-5-(thiophen-2-yl)-1H-pyrazol-3-yl)phenol] | 6 mm | 21.4% | 74.7 ± 3.9 µM |  |  | 5 mm | 22.7% |  |  | 65 ± 3.6 µM | 250 to 252 °C | 3 mm | 15.8% |  |  |  |  |  |  |  |  |
| CC(=O)N1CCN(c2ccc(OCC3COC(Cn4ccnc4)(c4ccc(Cl)cc4Cl)O3)cc2)CC1 (centres unmarked) [Ketoconazole, reference compound] | 28 mm | 100% |  |  |  |  |  | 26 mm | 100% |  |  |  |  |  |  |  |  |  |  |  |  |
| O=C(/C=C/c1cccs1)c1ccc(Cl)c(Cl)c1 [1b, (E)-1-(3,4-dichlorophenyl)-3-(thiophen-2-yl)prop-2-en-1-one] |  |  | 84.2 ± 4.2 µM |  |  |  |  |  |  | > 100 µM | 85 °C |  |  |  |  |  |  |  |  |  |  |
| Oc1ccc(C2=NN(C(=S)Nc3ccccc3)C(c3cccs3)C2)cc1 (centres unmarked) [14a, 3-(4-hydroxyphenyl)-N-phenyl-5-(thiophen-2-yl)-4,5-dihydro-1H-pyrazole-1-carbothioamide] |  |  |  |  |  |  |  |  |  |  | 245 to 247 °C |  |  |  |  |  |  |  |  |  |  |

— article PMC10112504, “Novel 4-thiophenyl-pyrazole, pyridine, and pyrimidine derivatives as potential antitumor candidates targeting both EGFR and VEGFR-2; design, synthesis, biological evaluations, and in silico studies” (RSC Advances, 2023)
